Experimental data from PubChem BioAssay AID1963868 (Molecular Pharmacology Branch, DTP, NCI, 2024).

Test system: KRAS PDC tumor spheroids (HUVEC+MSC), viability
Test: Anticancer human tumor 254851-301-R-J1-PDC patient-derived colon carcinoma cell line growth inhibition [KRAS2]
Settings: for viability, T/C: stronger effect = lower value; active means viability on the fitted dose curve at most 10% of control; inactive means the rest
Outline: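 Combination screen of spheroid viability in tumor-cell co-cultures with endothelial (HUVEC) and mesenchymal stem cell stroma. Each agent was tested in half-log dilutions, topping at clinical Cmax or at 10 microM without a known Cmax.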

[1] = curve of first compound, second compound 0.1 µM
[2] = curve of first compound, second compound 0.316 µM
[3] = curve of first compound, second compound 1 µM
[4] = curve of first compound, second compound 3.16 µM
[5] = curve of first compound, second compound 10 µM
[6] = second compound 0.1 µM, first compound 0.0316 µM
[7] = second compound 0.1 µM, first compound 0.1 µM
[8] = second compound 0.1 µM, first compound 0.316 µM
[9] = second compound 0.1 µM, first compound 1 µM
[10] = second compound 0.316 µM, first compound 0.0316 µM
[11] = second compound 0.316 µM, first compound 0.1 µM
[12] = second compound 0.316 µM, first compound 0.316 µM
[13] = second compound 0.316 µM, first compound 1 µM
[14] = second compound 1 µM, first compound 0.0316 µM
[15] = second compound 1 µM, first compound 0.1 µM
[16] = second compound 1 µM, first compound 0.316 µM
[17] = second compound 1 µM, first compound 1 µM
[18] = second compound 3.16 µM, first compound 0.0316 µM
[19] = second compound 3.16 µM, first compound 0.1 µM
[20] = second compound 3.16 µM, first compound 0.316 µM
[21] = second compound 3.16 µM, first compound 1 µM
[22] = second compound 10 µM, first compound 0.0316 µM
[23] = second compound 10 µM, first compound 0.1 µM
[24] = second compound 10 µM, first compound 0.316 µM
[25] = second compound 10 µM, first compound 1 µM
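Further: spheroids exposed to compounds for seven days before readout.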
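Wherever viability, T/C is given: 100% = DMSO vehicle control luminescence of the spheroids.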

C=CC(=O)N1CCN(c2nc(OCC3CCCN3C)nc3c2CCN(c2cccc4cccc(C)c24)C3)CC1CC#N (stereo not given)
inactive: viability, T/C (compound 0.0316 µM) 98.7% [middle of 17 runs] | viability, T/C (compound 0.1 µM) 97% [middle of 17 runs]
> 3160 nM: IC50 (compound alone, run of 07/12/2021) | IC50 (compound alone, run of 07/19/2021) | IC50 (compound alone, run of 07/26/2021)

CCN1CCN(Cc2ccc(Nc3ncc(F)c(-c4cc(F)c5nc(C)n(C(C)C)c5c4)n3)nc2)CC1 + C=CC(=O)N1CCN(c2nc(=O)n(-c3c(C)ccnc3C(C)C)c3nc(-c4c(O)cccc4F)c(F)cc23)C(C)C1
707 nM: IC50 [4]
> 1000 nM: IC50 [2] | IC50 [3] | IC50 [5]
inactive: viability, T/C (second compound 0.1 µM, first compound 0.00316 µM) 114% | viability, T/C (second compound 0.1 µM, first compound 0.01 µM) 101% | viability, T/C [6] 96.9% | viability, T/C [7] 83.2% | viability, T/C [8] 73.2% | viability, T/C [9] 47.1% | viability, T/C (second compound 0.316 µM, first compound 0.00316 µM) 113% | viability, T/C (second compound 0.316 µM, first compound 0.01 µM) 107% | viability, T/C [10] 90.4% | viability, T/C [11] 82.6% | viability, T/C [12] 73.2% | viability, T/C [13] 50.9% | viability, T/C (second compound 1 µM, first compound 0.00316 µM) 104% | viability, T/C (second compound 1 µM, first compound 0.01 µM) 101% | viability, T/C [14] 92.8% | viability, T/C [15] 78.2% | viability, T/C [16] 75.7% | viability, T/C [17] 48.4% | viability, T/C (second compound 3.16 µM, first compound 0.00316 µM) 89.5% | viability, T/C (second compound 3.16 µM, first compound 0.01 µM) 87.4% | viability, T/C [18] 97.1% | viability, T/C [19] 59.7% | viability, T/C [20] 71.4% | viability, T/C [21] 42.6% | viability, T/C (second compound 10 µM, first compound 0.00316 µM) 96.4% | viability, T/C (second compound 10 µM, first compound 0.01 µM) 105% | viability, T/C [22] 102% | viability, T/C [23] 83.2% | viability, T/C [24] 73.8% | viability, T/C [25] 56%
960 nM: IC50 [1]

CCNC(=O)CC1N=C(c2ccc(Cl)cc2)c2cc(OC)ccc2-n2c(C)nnc21 (stereo not given) + CNCc1ccccc1-c1csc(C(C)Nc2nc(C)nc3cc(OC)c(OC)cc23)c1
> 10000 nM: IC50 [1] | IC50 [2] | IC50 [3]
< 31.6 nM: IC50 [4] | IC50 [5]
inactive: viability, T/C [6] 106% | viability, T/C [7] 91.1% | viability, T/C [8] 90.4% | viability, T/C [9] 99.1% | viability, T/C (second compound 0.1 µM, first compound 3.16 µM) 96% | viability, T/C (second compound 0.1 µM, first compound 10 µM) 78.6% | viability, T/C [10] 103% | viability, T/C [11] 111% | viability, T/C [12] 98.3% | viability, T/C [13] 92.9% | viability, T/C (second compound 0.316 µM, first compound 3.16 µM) 92.4% | viability, T/C (second compound 0.316 µM, first compound 10 µM) 81.9% | viability, T/C [14] 90.4% | viability, T/C [15] 101% | viability, T/C [16] 92.2% | viability, T/C [17] 100% | viability, T/C (second compound 1 µM, first compound 3.16 µM) 92.1% | viability, T/C (second compound 1 µM, first compound 10 µM) 73.8% | viability, T/C [18] 44.8% | viability, T/C [19] 43.3% | viability, T/C [20] 38% | viability, T/C [21] 31.3% | viability, T/C (second compound 3.16 µM, first compound 3.16 µM) 34.4% | viability, T/C (second compound 3.16 µM, first compound 10 µM) 31%
active: viability, T/C [22] 0.08% | viability, T/C [23] 0.08% | viability, T/C [24] 0.08% | viability, T/C [25] 0.08% | viability, T/C (second compound 10 µM, first compound 3.16 µM) 0.07% | viability, T/C (second compound 10 µM, first compound 10 µM) 0.45%
